We go through 15 compounds from ChEMBL document CHEMBL1146330, “Acyclic, orally bioavailable ketone-based cathepsin K inhibitors” (Bioorg Med Chem Lett, 2007).

One data set deals with T1, Cathepsin K (Homo sapiens, UniProt P43235).
T1 sequence (P43235 whole entry): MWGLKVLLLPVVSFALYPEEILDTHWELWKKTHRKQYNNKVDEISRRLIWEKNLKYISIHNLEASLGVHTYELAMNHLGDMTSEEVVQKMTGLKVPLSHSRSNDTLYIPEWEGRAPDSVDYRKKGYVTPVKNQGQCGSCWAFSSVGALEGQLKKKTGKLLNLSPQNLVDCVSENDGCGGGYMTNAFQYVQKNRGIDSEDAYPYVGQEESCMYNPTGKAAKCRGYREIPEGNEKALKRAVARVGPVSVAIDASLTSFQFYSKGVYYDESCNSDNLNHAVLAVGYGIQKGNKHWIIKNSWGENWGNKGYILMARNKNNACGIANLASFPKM
The data set is described as follows: Inhibition of human recombinant cathepsin K.

Data set [1] in a line: Terminal elimination half life in iv dosed Han Wistar rat. It is filed as ADME, organism-based. The conditions noted are these: in vivo.
Data set [2] can be described thus: Apparent permeability across MDCK cells. The note with it: dog. Type of data set: ADME, cell-based, Canis lupus familiaris.
For a further data set, the target named is Cathepsin S (Homo sapiens, UniProt P25774). The data set is described as follows: Inhibition of human recombinant cathepsin S.
Chain of Cathepsin S (P25774 whole entry): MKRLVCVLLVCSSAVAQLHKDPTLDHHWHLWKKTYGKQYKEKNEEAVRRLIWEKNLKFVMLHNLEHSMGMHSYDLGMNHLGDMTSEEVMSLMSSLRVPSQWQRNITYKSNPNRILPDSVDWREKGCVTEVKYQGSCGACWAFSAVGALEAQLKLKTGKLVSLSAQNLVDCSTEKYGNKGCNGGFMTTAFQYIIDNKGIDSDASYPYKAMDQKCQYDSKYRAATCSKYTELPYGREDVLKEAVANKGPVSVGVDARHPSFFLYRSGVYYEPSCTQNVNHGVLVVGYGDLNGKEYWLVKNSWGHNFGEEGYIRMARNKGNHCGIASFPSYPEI
The target in another data set is Cathepsin B (Homo sapiens, UniProt P07858). The data set is described as follows: Inhibition of human recombinant cathepsin B.
A short description of data set [3]: Volume of distribution at steady state in Han Wistar rat. The conditions noted are these: in vivo, read-out: Vdss. Type of data set: ADME, organism-based.
Data set [4] can be described thus: Solubility in fasted state simulated intestinal fluid at pH 6.8. It is filed as physicochemical.
The nature of data set [5]: Inhibition of human recombinant cathepsin L.
Data set [6] can be described thus: Total clearance in Han Wistar rat. It is filed as ADME, organism-based. The conditions noted are these: in vivo.
Data set [7] is described as follows: Oral bioavailability in Han Wistar rat. The conditions noted are these: in vivo. It is filed as ADME, organism-based.
Another data set is filed under the species Homo sapiens. Kind of data set: Selectivity for human recombinant cathepsin K over human recombinant cathepsin L.

Converted amounts (≈) assume the structure as drawn. A value given as a limit tells only on which side of the number the result lay.

The IC50 is the concentration needed to halve the response being measured. For the compound `CCCC[C@H](NC(=O)O[C@H](Cn1ccc(-c2ccc(C(F)(F)F)cc2)n1)C(C)(C)C)C(=O)CNC(=O)N1CCOCC1`, the concentration for half-maximal inhibition (IC50) on Cathepsin K was above 250 nM.
By half-life is commonly meant the time needed for the level to fall by half in the phase considered. A high value points to slow loss. By Papp is commonly meant the rate of passage across a membrane or cell layer, normalised by area and donor concentration. The solubility is how much of the substance goes into solution per volume. What is called clearance is the rate of elimination divided by the concentration. Low values mean inefficient removal, high ones efficient removal. Broadly, the bioavailability is the share of a dose that reaches the circulation, judged against a reference dose that is usually intravenous. A low value points to poor availability. `CCCC[C@H](NC(=O)O[C@H](Cn1ccc(-c2ccncc2)n1)C(C)(C)C)C(=O)CNS(=O)(=O)c1ccccn1` came in with a half-life in data set [1] of 120 min. In addition, the IC50 worked out at 3.8 nM on Cathepsin K, 11 nM on Cathepsin S, 13 nM on Cathepsin B and 38 nM in [5]. In addition, the apparent permeability coefficient (Papp) in [2] came out at 6.8 ×10⁻⁶ cm/s. The Vd in data set [3] was determined as 1.7 L/kg. Further, in data set [4], the solubility was 60 µg/mL (≈ 108 µM). The same compound displayed a clearance in [6] of 16 mL/min/kg. Moreover, the bioavailability in data set [7] worked out at 100%.
Regarding `CCCC[C@H](NC(=O)O[C@H](Cn1cc(-c2ccc(C(F)(F)F)cc2)cn1)C(C)(C)C)C(=O)CNS(=O)(=O)c1ccccn1`, the IC50 on Cathepsin K worked out at 7.6 nM; on Cathepsin S, 26 nM; on Cathepsin B, 72 nM; in [5] it was 7100 nM. Besides, in the data set filed under Homo sapiens, the Ratio IC50 is above 100.
Compound `CCCC[C@H](NC(=O)O[C@H](Cn1cnc(-c2ccc(C(F)(F)F)cc2)c1)C(C)(C)C)C(=O)CNS(=O)(=O)c1ccccn1` came in with a half-life in data set [1] of 67 min. The half-inhibitory concentration (IC50) at Cathepsin K worked out at 6.4 nM; on Cathepsin S it was 10 nM; at Cathepsin B, 130 nM; in data set [5] it was 1100 nM. Moreover, the Papp in [2] was found to be 19 ×10⁻⁶ cm/s. In addition, the Ratio IC50 in the data set listed under Homo sapiens is above 100. Moreover, the Vd in data set [3] stood at 1.6 L/kg. Moreover, the solubility in data set [4] was 40 µg/mL (≈ 64.1 µM). Besides, the clearance in [6] is 47 mL/min/kg. The bioavailability in data set [7] turned out to be 22%.
Take `CC(C)(C)[C@@H](Cn1ccc(-c2ccc(C(F)(F)F)cc2)n1)OC(=O)NCC(=O)CNS(=O)(=O)c1ccccn1`: the IC50 on Cathepsin K was determined as 65 nM.
For `CCCC[C@H](NC(=O)O[C@H](Cn1ccc(-c2ccc(C(F)(F)F)cc2)n1)C(C)(C)C)C(=O)CNS(=O)(=O)c1ccccn1`, in data set [1], the half-life came out at 120 min. Further, the IC50 at Cathepsin K was 4 nM; on Cathepsin S, 35 nM; at Cathepsin B it was 170 nM; in [5] it was above 250 nM. Besides, the apparent permeability (Papp) in [2] came to 16 ×10⁻⁶ cm/s. Further, in data set [3], the Vd stood at 1.8 L/kg. Further, the concentration in solution in data set [4] (solubility) came to 41 µg/mL (≈ 65.7 µM). The clearance in data set [6] came out at 26 mL/min/kg. Further, in data set [7], the bioavailability stood at 21%.
Take `CCCC[C@H](NC(=O)O[C@H](Cn1ccc(-c2ccc(C(F)(F)F)cc2)n1)C(C)(C)C)C(=O)CNc1cccc(F)n1`: the IC50 at Cathepsin K is 2.1 nM; at Cathepsin S, 19 nM; on Cathepsin B it was 68 nM; in [5] it was above 250 nM. In the data set listed under Homo sapiens, the Ratio IC50 is above 100.
In the case of `C[C@H](NC(=O)O[C@H](Cn1cnc2cc(Cl)c(Cl)cc21)C(C)(C)C)C(=O)CNS(=O)(=O)c1ccccn1`, the IC50 on Cathepsin K amounted to 1.4 nM; on Cathepsin S, 7.9 nM; at Cathepsin B, 71 nM; in data set [5], 38 nM.
As to `CCCC[C@H](NC(=O)O[C@H](Cn1ccc(-c2ccc(C(F)(F)F)cc2)n1)C(C)(C)C)C(=O)C(=O)Nc1ccn[nH]1`, the half-life in data set [1] is 320 min. In addition, the IC50 at Cathepsin K turned out to be 0.072 nM; on Cathepsin S, 0.21 nM; at Cathepsin B, 20 nM; in data set [5], 8.7 nM. Moreover, the Papp in data set [2] amounted to 9.1 ×10⁻⁶ cm/s. Further, the Vd in data set [3] came to 1.6 L/kg. Further, in [4], the solubility was 110 µg/mL (≈ 196 µM). In data set [7], this compound had a bioavailability of 42%.
Compound `C[C@H](NC(=O)O[C@H](Cn1ccc(-c2ccc(C(F)(F)F)cc2)n1)C(C)(C)C)C(=O)CNS(=O)(=O)c1ccccn1` showed a half-life in [1] of 32 min. Further, the concentration for half-maximal inhibition (IC50) was 18 nM on Cathepsin K, 64 nM on Cathepsin S, 310 nM at Cathepsin B and above 250 nM in data set [5]. The apparent permeability (Papp) in data set [2] is 30 ×10⁻⁶ cm/s. Also, in data set [3], the Vd worked out at 1.8 L/kg. Further, the solubility in [4] is 97 µg/mL (≈ 167 µM). The compound also registered a clearance in [6] of 82 mL/min/kg. In data set [7], this compound came in with a bioavailability of 27%.
Compound `CCCC[C@H](NC(=O)O[C@H](Cn1cnc2cc(Cl)c(Cl)cc21)C(C)(C)C)C(=O)CNS(=O)(=O)c1ccccn1` registered a half-life in data set [1] of 46 min. Besides, the IC50 on Cathepsin K stood at 3.2 nM; on Cathepsin S, 10 nM; on Cathepsin B, 40 nM; in data set [5], 16 nM. For the same compound, the Papp in data set [2] was determined as 15 ×10⁻⁶ cm/s. In data set [3], the Vd is 1.3 L/kg. Besides, the concentration in solution in data set [4] (solubility) came to 28 µg/mL (≈ 46.8 µM). The compound further displayed a clearance in [6] of 31 mL/min/kg. In [7], the bioavailability stood at 32%.
On to `C[C@H](NC(=O)O[C@H](Cn1ccc(C(F)(F)F)n1)C(C)(C)C)C(=O)CNS(=O)(=O)c1ccccn1`, for which, at Cathepsin K, the IC50 came out at 300 nM.
Regarding `CCCC[C@H](NC(=O)O[C@H](Cn1ccc(-c2cccnc2)n1)C(C)(C)C)C(=O)CNS(=O)(=O)c1ccccn1`, the IC50 was 5.5 nM at Cathepsin K, 15 nM at Cathepsin S, 79 nM on Cathepsin B and 100 nM in [5].
With `CCCC[C@H](NC(=O)O[C@H](Cn1ccc(C(F)(F)F)n1)C(C)(C)C)C(=O)CNS(=O)(=O)c1ccccn1`, the half-life in data set [1] came to 24 min. Also, at Cathepsin K, the 50% inhibitory concentration (IC50) amounted to 32 nM. In data set [2], the Papp was 34 ×10⁻⁶ cm/s. For the same compound, the Vd in data set [3] turned out to be 0.46 L/kg. The clearance in data set [6] was found to be 21 mL/min/kg. For the same compound, in data set [7], the bioavailability is 20%.
In [1], `CC(C)C[C@H](NC(=O)c1cc2ccccc2o1)C(=O)N[C@@H](C)C(=O)CNS(=O)(=O)c1ccccn1` registered a half-life of 33 min. The IC50 at Cathepsin K came to 7.5 nM; at Cathepsin S, 20 nM; at Cathepsin B, 59 nM.
